From PubChem BioAssay AID248 (DTP/NCI, 2004)
Toxic doses and inconclusive results are not listed. Rule as the data show it: active = T/C of 150% or more; inactive = T/C below 125%.

Tested on: L1210 leukemia ip in BDF1 mice, survival T/C
Assay: NCI In Vivo Anticancer Drug Screen. Data for tumor model L1210 Leukemia (intraperitoneal) in B6D2F1 (BDF1) mice
Details: endpoint: mean survival time, higher = longer survival
Outline: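 Antitumor effect is assessed in tumor-bearing animals. Survival in the compound arm is compared with a vehicle-dosed control arm and expressed as their quotient.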

[1] = dose: 50.0 mg/kg/injection, schedule: Q01DX009 (ip), vehicle: Klucel (hydroxypropylcellulose) (HPC)
[2] = dose: 100.0 mg/kg/injection, schedule: Q01DX009 (ip), vehicle: Klucel (hydroxypropylcellulose) (HPC)
[3] = dose: 200.0 mg/kg/injection, schedule: Q01DX009 (ip), vehicle: Klucel (hydroxypropylcellulose) (HPC)
[4] = dose: 100.0 mg/kg/injection, schedule: Q04DX003 (ip), vehicle: saline with Tween-80
[5] = dose: 200.0 mg/kg/injection, schedule: Q04DX003 (ip), vehicle: saline with Tween-80
[6] = dose: 400.0 mg/kg/injection, schedule: Q04DX003 (ip), vehicle: saline with Tween-80
[7] = dose: 100.0 mg/kg/injection, schedule: Q04DX002 (ip), vehicle: saline with Tween-80
[8] = dose: 200.0 mg/kg/injection, schedule: Q04DX002 (ip), vehicle: saline with Tween-80
[9] = dose: 400.0 mg/kg/injection, schedule: Q04DX002 (ip), vehicle: saline with Tween-80

Measured: T/C

CC(=O)Nc1nc2[nH]ccc2c(=O)[nH]1
inactive: dose: 75.0 mg/kg/injection, schedule: Q01DX001 (ip), vehicle: other 106 % of control | dose: 150.0 mg/kg/injection, schedule: Q01DX001 (ip), vehicle: other 104 % of control | dose: 300.0 mg/kg/injection, schedule: Q01DX001 (ip), vehicle: other 103 % of control

O=C(/C=C/c1cccc2ccccc12)c1cccc([N+](=O)[O-])c1
inactive: dose: 100.0 mg/kg/injection, schedule: Q04DX002 (ip), vehicle: gum acacia 88 % of control | dose: 200.0 mg/kg/injection, schedule: Q04DX002 (ip), vehicle: gum acacia 92 % of control | dose: 400.0 mg/kg/injection, schedule: Q04DX002 (ip), vehicle: gum acacia 96 % of control

COc1ccc([N+](=O)[O-])cc1NC(=O)Oc1ccc(F)cc1Cl
inactive: [1] 108 % of control | [2] 111 % of control | [3] 90 % of control

CCCCCCCCCCCCCCCCNS(=O)(=O)c1ccc(NN)cc1
inactive: [1] 98 % of control | [2] 99 % of control | dose: 100.0 mg/kg/injection, schedule: Q04DX003 (ip), vehicle: Klucel (hydroxypropylcellulose) (HPC) 97 % of control | [3] 91 % of control | dose: 200.0 mg/kg/injection, schedule: Q04DX003 (ip), vehicle: Klucel (hydroxypropylcellulose) (HPC) 95 % of control

CCN(CC)C(=S)SCc1ccccc1OC(=O)NC
inactive: dose: 75.0 mg/kg/injection, schedule: Q01DX001 (ip), vehicle: saline 101 % of control | dose: 150.0 mg/kg/injection, schedule: Q01DX001 (ip), vehicle: saline 98 % of control

Oc1ccc(Nc2ncnc3nc[nH]c23)cc1O
inactive: [4] 101 % of control | [5] 89 % of control | [6] 100 % of control

COc1cccc(NC(=S)N(CCC#N)C2CCCCC2)c1
inactive: [7] 102 % of control | [8] 97 % of control | [9] 97 % of control

O=C(O)/C(Cc1cnc2ccccc2n1)=N\O
inactive: dose: 100.0 mg/kg/injection, schedule: Q01DX009 (ip), vehicle: saline with Tween-80 104 % of control | [4] 105 % of control | dose: 200.0 mg/kg/injection, schedule: Q01DX009 (ip), vehicle: saline with Tween-80 104 % of control | [5] 101 % of control | dose: 400.0 mg/kg/injection, schedule: Q01DX009 (ip), vehicle: saline with Tween-80 93 % of control | [6] 100 % of control

O=[N+]([O-])c1ccc(N=Cc2ccc(Cl)cc2Cl)c(O)c1
inactive: [7] 86 % of control | [8] 120 % of control | [9] 99 % of control
